Measured values from patent US11351165B2, “Agent that increases the expression of the opioid kappa 1 for the treatment of cancer” (LDN Pharma Limited, priority 2017, dated 2022).

Experiments:
Assay type in all cases: cell-based
A549 cells = assay: Priming with 6-β-naltrexol, then chemotherapy agent; cell number and viability by trypan blue counting, A549; settings: FIG. 2c
Description: (§1) The impact of combining 6-β-naltrexol with other chemotherapy agents was tested by culturing cells according to a treatment schedule that involved two phases of treatment. The first phase involved priming with 10 nM 6-β-naltrexol or 10 μM 6-β-naltrexol for 48 h, before treatment with another drug for a further 48 h. A549 and HCT116 cells were seeded into 6-well plates at a density of 2×10^5 cells/well and left to adhere overnight. Media was removed after 48 h, and cells were rinsed gently with drug-free medium. Fresh culture medium that contained gemcitabine (GEM) or oxaliplatin (OXP) was then added to the cells. The concentrations of the chemotherapy agents used were approximately ¼ IC50, as established previously [Liu W M, Fowler D W, Smith P, Dalgleish A G. Pre-treatment with chemotherapy can enhance the antigenicity and immunogenicity of tumours by promoting adaptive immune responses. Br J Cancer. 2010 Jan. 5; 102(1):115-23. doi: 10.1038/sj.bjc.6605465.]. Cells were then left for a further 48 h before assessment of cell number of viability by cell counting using trypan blue dye as a way of discriminating live and dead cells. Cytostasis was indicated by a reduction in cell number and no associated reduction in cell viability.

OPRK1 [1] = assay: Level of expression of OPRK1 by immunoblotting in HCT116 cells; settings: HCT116 colon cancer cells, 1 nM to 10 μM for 48 h
Description: (§2) In order to determine the effect of 6-β-naltrexol or naltrexone on the level of expression of OPRK1, A549 lung cancer or HCT116 colon cancer cells were seeded onto 6-well plates at a density of 2×10^5 cell/well, and allowed to adhere overnight. Cells were then cultured in the presence of naltrexone or 6-β-naltrexol at concentrations of 1 nM, 10 nM, 100 nM, 1 μM or 10 μM for a further 48 h. Cells were then harvested and processed for measurements of OPRK1, opioid receptor-μ1 (OPRM1) and GAPDH using standard immunoblotting techniques.

HCT116 cells = assay: Priming with 6-β-naltrexol, then chemotherapy agent; cell number and viability by trypan blue counting, HCT116; settings: FIG. 2d
Description: as §1

OPRK1 [2] = assay: Level of expression of OPRK1 by immunoblotting in A549 cells; settings: A549 lung cancer cells, 1 nM to 10 μM for 48 h
Description: as §2

[3] = 10 nM or 10 μM 6-β-naltrexol 48 h, then gemcitabine or oxaliplatin at approx. 1/4 IC50 for 48 h
[4] = 10 nM or 10 μM 6-β-naltrexol alone (6BN-0)

Structure (SMILES)	cytotoxic effect of chemotherapeutic agents after priming (A549 cells; [3])	cytotoxicity of the agent alone (A549 cells; [4])	level of expression of OPRK1 (OPRK1 [1])	cytotoxic effect of chemotherapeutic agents after priming (HCT116 cells; [3])	cytotoxicity of the agent alone (HCT116 cells; [4])	level of expression of OPRK1 (OPRK1 [2])
Oc1ccc2c3c1OC1[C@H](O)CC[C@@]4(O)[C@@H](C2)N(CC2CC2)CC[C@]314 (stereo partly drawn) [6-β-naltrexol, 17-(Cyclopropylmethyl)-4,5-epoxymorphinan-3,6 beta,14-triol]	cytotoxic effect of both chemotherapeutic agents is increased	absence of any independent increase in cytotoxicity	increases the level of expression of OPRK1	cytotoxic effect of both chemotherapeutic agents is increased	absence of any independent increase in cytotoxicity	increase the level of expression of ORPK1
O=C1CC[C@@]2(O)[C@H]3Cc4ccc(O)c5c4[C@@]2(CCN3CC2CC2)[C@H]1O5 [naltrexone, reference compound]			down-regulates the level of expression of OPRK1			increase the level of expression of ORPK1
